# US12076305B2, “Compositions comprising a conjugate of quinic acid with caffeic acid, cosmetic and therapeutic uses” (CALSCIENCE INTERNATIONAL LTD, priority 2013, dated 2024)
# How the values were obtained:
# [1] = system: Pp65 (ser 536); assay: Western blot of LNCaP cell extracts probed for Pp65 (ser 536); assay type: cell-based; conditions: LNCaP cells; 24 hours; 0.1, 1, 3, 10, 30, 100 μM
# Description: (§1) Lanes 1 and 2 of the Western blot show the expression levels Hela control lysates comprising TNF-alpha (TNFα), in stimulated and unstimulated conditions. Lanes 3 and 4 show the results of LNCaP cell extracts, in stimulated and unstimulated conditions. In this case, the vehicle used is ethanol. Lanes 5 to 10 show the results of LNCaP cell extracts incubated for 24 hours in 0.1, 1, 3, 10, 30, 100 μM of 1,5-DCQA, respectively. Tubulin (50kD) was used as a loading control.
# [2] = system: Sirtuin 2 (SIRT2); assay: Taqman Real Time-PCR expression of Sirtuin 2 in HFFs with/without H2O2 stress; assay type: cell-based, Human; conditions: for ddct (−0.016) (SIRT2) / Relative Expression of SIRT2 / dCt (SIRT2) / SIRT2 (Ct): 1/1000 dilution; for dCt (SIRT2): vs HPRT
# Description: (§2) The following results shown in FIGS. 2 to 7 relate to the analysis of Senescence tests on compound 2066 (1,5-dicaffeoylquinic acid or 1,5-DCQA). The experiments were conducted using Human Foreskin Fibroblasts (HFFs).
# (§3) In the following experiments, HFFs were challenged for a period of two hours with 150 μM hydrogen peroxide (H2O2), to stimulate premature senescence in the presence and absence of 1,5-Dicaffeoylquinic acid (1/1000 dilution), and subsequently assayed by Taqman Real Time-PCR for the expression of key senescence associated genes.
# (§4) These genes are involved in cell cycle regulation and mitochondrial stress responses. Challenge with a near lethal level of oxidant stress typically induces an increase in SIRT2 and decrease in SIRT3 expression. […] This is indicative of each having a potential for stimulating cell proliferation in the absence of oxidant challenge.
# (§5) The results shown in Table 2 and FIGS. 2 to 7 were generated using the polymerase chain reaction (PCR), wherein the dCt and ddCT values are results used in statistical analysis. The abbreviation dCt relates to “delta cycle threshold” and the abbreviation ddCt relates to “delta delta cycle threshold”. In these experiments, HPRT (hypoxanthine phosphoribosyltransferase, a protein from the HPRT-1 gene) was used as a control.
# [3] = system: hPOT1; assay: Taqman Real Time-PCR expression of hPOT1 in HFFs with/without H2O2 stress; assay type: cell-based, Human; conditions: for ddct (−1.835) (hPOT1) / Relative Expression of hPOT1 / dct (hPOT1) / HPOT1 (Ct): 1/1000 dilution; for dct (hPOT1): vs HPRT
# Description: as §2, §3
# These findings are supported by an analysis of the Protection of Telomeres gene (POT 1).
# as §5
# [4] = system: p21; assay: Taqman Real Time-PCR expression of p21 in HFFs with/without H2O2 stress; assay type: cell-based, Human; conditions: for ddct (−3.761) (P21) / Relative Expression of P21 / dCt (P21) / P21 (Ct): 1/1000 dilution; for dCt (P21): vs HPRT
# Description: as §2, §3, §5
# [5] = system: p16; assay: Taqman Real Time-PCR expression of p16 in HFFs with/without H2O2 stress-induced premature senescence; assay type: cell-based, Human; conditions: for ddct (1.275) (P16) / Relative Expression of P16 / dCt (P16) / P16 (Ct): 1/1000 dilution; for dCt (P16): vs HPRT
# Description: as §2, §3, §5
# [6] = system: p65; assay: Western blot of LNCaP cell extracts probed for p65; assay type: cell-based; conditions: LNCaP cells; 24 hours; 0.1, 1, 3, 10, 30, 100 μM
# Description: as §1
# [7] = system: Sirtuin 3 (SIRT3); assay: Taqman Real Time-PCR expression of Sirtuin 3 in HFFs with/without H2O2 stress; assay type: cell-based, Human; conditions: for ddct (−2.079) (SIRT3) / Relative Expression of SIRT3 / dCt (SIRT3) / SIRT3 (Ct): 1/1000 dilution; for dCt (SIRT3): vs HPRT
# Description: as §2, §3, §4, §5
# [8] = system: XRCC5; assay: Taqman Real Time-PCR expression of XRCC5 in HFFs with/without H2O2 stress; assay type: cell-based, Human; conditions: for ddct (−1.292) (XRCC5) / Relative Expression of XRCC5 / dCt (XRCC5) / XRCC5 (Ct): 1/1000 dilution; for dCt (XRCC5): vs HPRT
# Description: as §2, §3
# XRCC5 is a double strand break repair protein.
# as §5
# [9] = system: Human Foreskin Fibroblasts (HFFs); assay: WST-1 Cell Proliferation Assay in HFFs; assay type: cell-based; conditions: 1/1000 and 2/1000 dilutions
# Description: The WST-1 Cell Proliferation Assay provides a sensitive and accurate assay for cell proliferation and cytotoxicity (cell viability). The WST assay is based on the cleavage of the tetrazolium salt WST-1 to formazan by cellular mitochondrial dehydrogenases. Expansion in the number of viable cells results in an increase in the overall activity of the mitochondrial dehydrogenases in the sample. The augmentation in enzyme activity results in an increase in the amount of formazan dye formed. The formazan dye produced by viable cells was quantified by a multi-well spectrophotometer by measuring the absorbance of the dye solution at 440 nm. The compound provided was tested in the WST assay over a range of dilutions. […] The results of the assay show the standard deviation (SD) for 1,5-DCQA (2066) and the control, and the mean values for 1,5-DCQA (2066) and the control.
# [10] = system: MMP-9; assay: Western blot of LNCaP cell extracts probed for MMP-9; assay type: cell-based; conditions: LNCaP cells; 24 hours; at 0.1 μM to 100 μM
# Description: as §1
# [11] = HFFs, & stress (150 μM H2O2, two hours)
# [12] = & stress (150 μM H2O2, two hours)
compound,measurement,setting,value
"O=C(/C=C/c1ccc(O)c(O)c1)O[C@@H]1C[C@](OC(=O)/C=C/c2ccc(O)c(O)c2)(C(=O)O)C[C@@H](O)[C@H]1O [1,5-DCQA, 1,5-dicaffeoylquinic acid]",inhibition of the phosphorylation of p65,[1],does inhibit
same,ddct (−0.016) (SIRT2),"[2]; HFFs, & stress (150 μM H2O2)",0.371
same,Relative Expression of SIRT2,"[2]; HFFs, & stress (150 μM H2O2), media = 1.000, stress alone 0.762",0.773
same,dCt (SIRT2),"[2]; HFFs, & stress (150 μM H2O2)",0.387
same,SIRT2 (Ct),[2]; [11],27.72
same,SIRT2 (Ct),"[2]; HFFs, no stress",27.16
same,ddct (−0.016) (SIRT2),"[2]; HFFs, no stress",0.817
same,Relative Expression of SIRT2,"[2]; HFFs, no stress, media = 1.000",0.568
same,dCt (SIRT2),"[2]; HFFs, no stress",0.833
same,change in SIRT2 expression,"[2]; HFFs, without stress",significant decrease
same,down regulation of SIRT2 expression,[2]; normal fibroblasts,approximately 52%
same,effect on hPOT1 expression against oxidant challenge,[3]; 150 μM H2O2,protective effect
same,ddct (−1.835) (hPOT1),[3]; & stress (150 μM H2O2),0.405
same,Relative Expression of hPOT1,"[3]; & stress (150 μM H2O2), media = 1.000, stress alone 1.625",0.755
same,dct (hPOT1),[3]; & stress (150 μM H2O2),2.240
same,HPOT1 (Ct),[3]; [12],29.5758
same,HPOT1 (Ct),[3]; no stress,29.47
same,ddct (−1.835) (hPOT1),[3]; no stress,1.306
same,Relative Expression of hPOT1,"[3]; no stress, media = 1.000",0.404
same,dct (hPOT1),[3]; no stress,3.141
same,p21 expression levels following stress,[4]; 150 μM H2O2,substantially unchanged
same,ddct (−3.761) (P21),[4]; & stress (150 μM H2O2),−2.263
same,Relative Expression of P21,"[4]; & stress (150 μM H2O2), media = 1.000, stress alone 4.519",4.801
same,dCt (P21),[4]; & stress (150 μM H2O2),−6.024
same,P21 (Ct),[4]; [12],21.31
same,P21 (Ct),[4]; no stress,22.4
same,ddct (−3.761) (P21),[4]; no stress,−0.167
same,Relative Expression of P21,"[4]; no stress, media = 1.000",1.122
same,dCt (P21),[4]; no stress,−3.928
same,protection of p16 expression from oxidant challenge,[5]; 150 μM H2O2,excellent protection from oxidant challenge
same,ddct (1.275) (P16),[5]; & stress (150 μM H2O2),−0.519
same,Relative Expression of P16,"[5]; & stress (150 μM H2O2), media = 1.000, stress alone 3.151",1.433
same,dCt (P16),[5]; & stress (150 μM H2O2),0.756
same,P16 (Ct),[5]; [12],28.09
same,P16 (Ct),[5]; no stress,27.66
same,ddct (1.275) (P16),[5]; no stress,0.050
same,Relative Expression of P16,"[5]; no stress, media = 1.000",0.966
same,dCt (P16),[5]; no stress,1.325
same,effect on p16 expression in untreated cells,[5]; no H2O2,no stress effect
same,inhibition of the expression of p65,[6],does not inhibit
same,ddct (−2.079) (SIRT3),"[7]; HFFs, & stress (150 μM H2O2)",−0.120
same,Relative Expression of SIRT3,"[7]; HFFs, & stress (150 μM H2O2), media = 1.000, stress alone 0.794",1.086
same,dCt (SIRT3),"[7]; HFFs, & stress (150 μM H2O2)",1.959
same,SIRT3 (Ct),[7]; [11],29.3
same,SIRT3 (Ct),"[7]; HFFs, no stress",28.56
same,ddct (−2.079) (SIRT3),"[7]; HFFs, no stress",0.148
same,Relative Expression of SIRT3,"[7]; HFFs, no stress, media = 1.000",0.903
same,dCt (SIRT3),"[7]; HFFs, no stress",2.227
same,change in SIRT3 expression,"[7]; HFFs, following oxidant challenge",increase
same,up regulation of SIRT3 expression,[7]; senescent fibroblasts,approximately 36%
same,induction of DNA breaks (from XRCC5 expression),[8],does not induce DNA breaks
same,ddct (−1.292) (XRCC5),[8]; & stress (150 μM H2O2),−0.141
same,Relative Expression of XRCC5,"[8]; & stress (150 μM H2O2), media = 1.000, stress alone 2.237",1.103
same,dCt (XRCC5),[8]; & stress (150 μM H2O2),−1.433
same,XRCC5 (Ct),[8]; [12],25.9
same,XRCC5 (Ct),[8]; no stress,25.48
same,ddct (−1.292) (XRCC5),[8]; no stress,0.444
same,Relative Expression of XRCC5,"[8]; no stress, media = 1.000",0.735
same,dCt (XRCC5),[8]; no stress,−0.848
same,expression of XRCC5 in comparison with the control data set,[8]; with and without 150 μM H2O2,substantially unaltered
same,cell viability (WST-1),[9],beneficial to cell viability
same,inhibition of MMP-9,[10],clearly demonstrated
